The record followed here is a melting point compilation (Tetko et al.; mined from patent text by program, amines drawn as free bases though some values may be those of a salt).

The melting point is the temperature, or range, at which the solid turns liquid. Compound `COCc1cc2c(c3c1[nH]c1ccc(O)cc13)C(=O)N(CCN(C)C)C2=O` gave a melting point of 235 to 237 °C.
For the compound `Cc1nc(N)nc(Cl)c1C`, the melting point was in the range of 212 to 220 °C.
`O=C(NC(Cc1c[nH]c2ccccc12)C(=O)CCc1cc(C(F)(F)F)cc(C(F)(F)F)c1)OCCc1ccccn1` (configuration not stated): the melting point was in the range of 133 to 135 °C.
To `Cn1cc2c(nc(NC(=O)Nc3ccc(CC(=O)NCCOCCOCCNC(=O)OC(C)(C)C)cc3)n3nc(-c4ccco4)nc23)n1` belongs 157 to 165 °C; to `CC(C)C[C@H](O)[C@H](O)[C@@H](N)CC1CCCCC1`, 110 to 111 °C.
In the case of `COc1ccc(OC)c2c1C(=O)c1c(C)oc(C)c1C2=O` it was 227 to 228 °C; in that of `COc1ccc2c(C3OC(=O)NC3=O)c(OC)ccc2c1` (configuration not stated), 175 to 180 °C; in that of `Cc1cccc(-c2nc(C(C)C)[nH]c2-c2ccc(F)c(-c3ccc(NS(=O)(=O)C4CC4)cc3)c2)n1`, 119 to 129 °C.
In the case of `CCC1(c2ccccc2)OC(c2ccc(-c3ccc(Cl)cc3)cc2)OC1=O` (configuration not stated) it was 80 to 83 °C; in that of `CCCn1c(=O)c2c(nc(C=Cc3ccc(C(=O)OC)cc3OC)n2C)n(CCC)c1=O`, 198 to 200 °C; in that of `CC(O)CN(CC(C)O)C1CC(C)(C)NC(C)(C)C1` (configuration not stated), 97 to 102 °C.
As for `CCCCCCCCC(SCCCCCC)C(=O)NC1(OC)C=C(C)C=CN1` (configuration not stated), the melting point was in the range of 83 to 85 °C.
In the case of `CN1C2CCC1C1CN(C(=O)N3c4ccccc4C(=O)Nc4cccnc43)CC12` (configuration not stated) it was 218 to 220 °C; in that of `COc1ccc(C)cc1NC(=O)Nc1ccc(C2=CCN(C(=O)Nc3ccc(OCCO)cc3C(F)(F)F)CC2)cc1`, 150 to 153 °C; in that of `CCOC(=O)c1c(Oc2ccc(Cl)cc2N)c2ccccc2n1C`, 118 to 120 °C.
For the compound `CC(=O)N1C(=O)N(c2cc(Cl)cc(Cl)c2)C(=O)[C@]12CNC[C@H]2c1ccc(C#N)cc1` (relative stereo), the melting point came out at 125 °C.
In the case of `c1ccc(N(c2ccccc2)c2ccc3c4c(cccc24)CC3)cc1` it was 168 to 170 °C; in that of `CCCC1=NN=C2C1=C1C=CC=CN1C(=O)C2C#N` (configuration not stated), 298 to 300 °C.
In the case of `CS(=O)(=O)Nc1ccc2c(c1)CC(=O)N2CCN1CCN(Cc2ccccc2)CC1` it was 196 to 198 °C; in that of `CCn1c(=O)c2[nH]c(/C=C/c3cc(C(F)(F)F)cc(C(F)(F)F)c3)nc2n(CC)c1=O`, above 280 °C; in that of `CC(C)[C@]1(CCc2ccccc2)CC(O)=C(Sc2cc3sc(N)nc3cc2C(C)(C)C)C(=O)O1`, 186 to 188 °C.
To `COc1cc(N)c(Cl)cc1C(=O)NCC1CCN(CCCC(=O)c2ccccc2)CC1` belongs 148 to 150 °C; to `COc1cc2c(c(Cl)c1Cl)C(=O)C(CCCl)=C2`, 103 to 105 °C.
In turn, `CON(C)Cc1nc2c(N)nc3ccccc3c2n1CC1(O)CCC1` registered a melting point of 219 to 221 °C.
To `O=c1ccn(-c2cccc(C(F)(F)F)c2)nc1-c1ccnn1-c1cccc(F)c1` belongs 104 to 105 °C; to `CCOC(=O)C(C)Oc1ccc2ccc(Oc3cc(-n4c(=O)cc(C(F)(F)F)n(C)c4=O)c(F)cc3C#N)cc2c1` (configuration not stated), 133 °C; to `Cc1nc(-c2cc(C(N)=O)c(=O)[nH]c2C)cs1`, above 300 °C.
`O=C(O)CCC(=O)Nc1ccc(N2CCN(c3ccncc3)CC2)cc1` displayed a melting point of 263 to 264 °C.
In the case of `CCOC(=O)C=CN1C(C)(C)CC(OC(=O)CCl)CC1(C)C` it was 80 to 82 °C.
To `CCn1cc(C(=O)O)c(=O)c2cc(F)c(N3CCC(N)C3)c(C)c21` (configuration not stated) belongs 187 to 194 °C.
In the case of `CC(C)n1nnc(-c2cnc3ccccn3c2=O)n1` it was 146 to 148 °C.
`CCOc1ccc(OCc2ccc(OCc3nc(-c4ccccc4)oc3C)cc2)c(CCC(=O)O)c1` registered a melting point of 115 to 116 °C.
In turn, `Cc1cc(C(=O)Nc2cc(Oc3ccc4nc(NC(=O)C5CC5)cn4n3)ccc2C)n(C)n1` had a melting point of 223 °C.
To `Cc1c(-c2ccc3c(c2)NC(=O)CO3)nc2ccccn12` belongs 280 to 282 °C; to `COc1ccc(OC)c2c1C(=O)c1ccc(-c3nnn[nH]3)cc1C2=O`, 260 to 262 °C; to `O=c1oc2ccc(-c3ccc(F)cc3F)cc2c(=O)n1-c1ccc(F)cc1F`, 155 to 156 °C.
In the case of `Cc1cc2nc3c4cc(O)ccc4n(CCN(C)C)c3nc2cc1C` it was above 260 °C; in that of `C=C(C)COc1ccc(Cl)cc1CN(CC)c1ccc(C(=O)O)nn1`, 130 to 131 °C.
To `O=c1[nH]c2cscc2c(=O)n1CCN1CCC(=C(c2ccc(F)cc2)c2ccc(F)cc2)CC1` belongs 204 to 206 °C; to `CC(=O)N(CC=C=CC=c1c(C)c2c(n(C)c1=O)=NN(c1ccccc1)C2=O)c1ccccc1`, above 300 °C; to `Nc1ccc(C(=O)O)cc1S(N)(=O)=O`, 214 to 219 °C.
Turning to `CC(C)C[C@@H](C#N)NC(=O)[C@@H]1CCCC[C@@H]1NC(=O)c1cc2ccccc2n1CCO`, the melting point lay in the range of 59 to 63.5 °C.
On to `COC(=O)C(C)(C)Nc1ncc(I)cc1[N+](=O)[O-]`, for which the melting point fell in the range of 121 to 122 °C.
Turning to `CC(C)(C)CNCc1nc(-c2ccc3c(c2)Nc2ccccc2S3)cs1`, the melting point was in the range of 172 to 174 °C.
On to `Clc1ccc(-c2ccc(CBr)cc2)cc1`, for which the melting point is 64 to 66 °C.
To `O=C(NCCOc1ccc(CC(Oc2cccc(F)c2)C(=O)O)cc1)c1ccc(-c2ccccn2)cc1` (configuration not stated) belongs 136 to 138 °C; to `COc1cccc(-c2ccc3cc(OC)ccc3c2Oc2ccc(O)cc2)c1`, 125 to 126 °C.
In turn, `O=C1NC(c2ccccc2)=N/C1=C\c1c[nH]c2ncc(Cl)cc12` showed a melting point of 250 °C.
To `CCCCN(CCCC)c1cc(OC)c(C=Cc2cccs2)c(OC)c1` belongs 90 °C; to `COc1ccc2c(c1)C(=O)c1ccc(C(=O)O)cc1CC2`, 201 to 203 °C; to `Cc1ccc(S(=O)(=O)n2cc(/C=C/C(=O)N(C)C)nc2C)cc1`, 162 to 163 °C.
`CCCCc1cc(O)n2nccc2n1` had a melting point of 177 to 178 °C.
Take `CCC(Oc1cccc(C(F)F)c1Cl)C1=NCCN1` (configuration not stated): the melting point lay within 96 to 97 °C.
To `NC1=CCC(c2nc3c(-c4cnn(-c5ccc(F)cc5)c4)cccn3n2)(C2CCNCC2)C=C1` (configuration not stated) belongs 245 to 247 °C; to `COc1cc2c(cc1OC)C(=CN1CCN(C)CC1)C(=O)N2`, 154 to 156 °C; to `O=C1NN=C(c2ccc3c(c2)CCN(C2CCC2)CC3)C2CCCC12` (configuration not stated), 198 to 201 °C.
In the case of `O=C(CCCC=CCC1C(O)CC(O)C1C=CC(O)CCc1ccccc1)ON1C(=O)CCC1=O` (configuration not stated) it was 93.5 to 103 °C.
In the case of `CCOC(=O)C1=Cc2cc(Cl)cc(Br)c2OC1C(F)(F)F` (configuration not stated) it was 101 to 102 °C; in that of `CCOc1nc(=O)n(C(=O)NC(=O)CCl)s1`, 132 °C.
The compound `CSC1Oc2ccc(Cl)cc2C1=O` (configuration not stated) registered a melting point of 76 to 78 °C.
In turn, `S=C(Nc1ccccc1)Nc1ncccc1OCc1c(Cl)cccc1Cl` displayed a melting point of 148 to 149 °C.
In the case of `C[C@]1(COc2ccc(N3CCC(N4CCN(c5ccc(OC(F)(F)F)cc5)CC4)CC3)cc2)Cn2cc([N+](=O)[O-])nc2O1` it was 279 to 281 °C.
To `COC(=O)c1ccc(F)cc1SC(=O)N(C)C` belongs 190 °C.
In the case of `COc1ccc(Cl)cc1C(NC(C)=N)(c1ccccc1)c1ccccc1` it was 143 to 145 °C.
`COC(=O)NN=C(C)c1c[nH]c(-c2ccccc2)n1` gave a melting point of 226 to 227 °C.
`CCOC(=O)c1cc(-c2ccc(Cl)cc2)cnc1C(Cl)Cl` registered a melting point of 132 to 134 °C.
In the case of `CSc1cc(C(C)C)c(NC(=O)C2c3ccccc3COc3ccc(Br)cc32)c(C(C)C)c1` (configuration not stated) it was 171 to 172 °C.
In the case of `Nc1ncnc2c1c(-c1ccc(Oc3ccccc3)cc1)c(Br)n2C1CCCC1` it was 162 °C.
In the case of `O=C(N[C@@H](CN1CCC(=C2c3ccccc3C=Cc3ccccc32)CC1)C(=O)O)OCc1ccccc1` it was 178 to 179 °C; in that of `O=C1OC(CN2CCC(n3c(=O)[nH]c4ccccc43)CC2)CN1c1ccccc1` (configuration not stated), 210 to 212 °C; in that of `COc1ccc(CCC(=O)c2ccc(O)cc2O)c(OC)c1C`, 171 °C.
The compound `Brc1ccc2nc(-c3coc4ccccc34)cn2c1` had a melting point of 151 to 153 °C.
To `O=S(=O)(O)CCCNC1CCCC1` belongs 280 to 282 °C; to `CNC(COc1ccc(C2C(=O)Oc3c2cc(C(C)(C)C)cc3C(C)(C)C)cc1)C(=O)O` (configuration not stated), 115 to 121 °C; to `O=C(O)c1ccccc1Sc1ccc(Cl)cc1`, 240 °C.
`Nc1c(-c2ccc(Cl)cc2Cl)nnn1Cc1ccc(S(N)(=O)=O)cc1`: the melting point lay in the range of 204 to 206 °C.
Compound `COc1ccc(C(=O)CN(Cc2ccccc2)Cc2ccccc2)cc1C(N)=O` registered a melting point of 113 to 114 °C.
To `Cc1ccc(S(=O)(=O)N(C)c2ccc(Cl)nn2)cc1` belongs 80 to 81 °C; to `Cc1cc(C)c2cccc(OCc3c(Cl)ccc(S(=O)(=O)N4CCC[C@H]4C(=O)NCCCNC(=O)c4cccc(C#N)c4)c3Cl)c2n1`, 102 to 106 °C; to `C=Cc1cc(C)cc(C)c1CC(=O)N(C)C1(C#N)CCN(OC)CC1`, 148 to 151 °C.
Consider `CCOC(=O)C1(I)C=CC(c2ccccc2)=CC1` (configuration not stated), for which the melting point was in the range of 105 to 106 °C.
In turn, `O=C1Cc2cccc(-c3ccccc3)c2C1` had a melting point of 133 to 136 °C.
To `CN1CCC(c2c[nH]c3ccc(NC(=O)c4ccc(Cl)s4)nc23)CC1` belongs 118 to 120 °C; to `CC1CC(=O)N[C@@H]2CCc3cc(Cl)ccc3[C@@H]12` (some centres not stated), 71.5 to 73 °C.
To `Cc1nn(-c2c(Cl)cc(C(F)(F)F)cc2Cl)c(N)c1SC#N` belongs 134 °C; to `Nc1cc(C(c2cc(F)ccc2F)S(=O)(=O)c2ccc(F)cc2)c(Cl)cn1` (configuration not stated), 157 to 159 °C; to `COc1cc(OCc2ccccc2)ccc1C(O)c1cc(Cl)ccc1N` (configuration not stated), 101 to 103 °C.
